ChEMBL document CHEMBL1201862, “PubChem BioAssay data set” (2004)
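Cultured in 96-well plates, cells were exposed to test compound for 48 hours across five concentrations. At the GI50, growth is halved.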 Activity calls are given as the source filed them. Rule as the data show it: active = GI50 up to about 1.1 µM and inactive = higher.

Key:
Test in all cases: inhibition of tumour cell growth, NCI panel, 48 h
[1] = system: 786-0
[2] = system: ACHN
[3] = system: CCRF-CEM
[4] = system: EKVX
[5] = system: HCT-15
[6] = system: HT-29
[7] = system: IGROV-1
[8] = system: KM12
[9] = system: LOX IMVI
[10] = system: M14
[11] = system: MCF7
[12] = system: MDA-MB-231
[13] = system: NCI-H23
[14] = system: NCI/ADR-RES
[15] = system: PC-3
[16] = system: SK-MEL-28
[17] = system: SK-MEL-5
[18] = system: SNB-75
[19] = system: UACC-62
[20] = system: RPMI-8226

## CCOC(=O)C(Cc1ccc(OC(=O)OC(C)(C)C)cc1)NC(=O)OC(C)(C)C (stereo unspecified)
[1]
  GI50: 34.8 µM (inactive)
[2]
  GI50: 74.1 µM (inactive)
[3]
  GI50: 21.9 µM (inactive)
[4]
  GI50: > 100 µM (inactive)
[5]
  GI50: > 100 µM
[6]
  GI50: > 100 µM (inactive)
[7]
  GI50: 50.1 µM (inactive)
[8]
  GI50: 70.6 µM (inactive)
[9]
  GI50: 44.1 µM (inactive)
[10]
  GI50: 26.5 µM (inactive)
[11]
  GI50: > 100 µM (inactive)
[12]
  GI50: 41.6 µM (inactive)
[13]
  GI50: > 100 µM (inactive)
[14]
  GI50: 49.9 µM (inactive)
[15]
  GI50: 34.5 µM (inactive)
[16]
  GI50: > 100 µM (inactive)
[17]
  GI50: > 100 µM (inactive)
[18]
  GI50: 17.1 µM (inactive)
[19]
  GI50: > 100 µM (inactive)

## C/C=C1/CN2[C@@H](C3=C[C@@H]4[C@@H]5N(C3=O)c3ccccc3[C@@]53CCN5C/C(=C/C)[C@@H]4C[C@H]53)C[C@@]34c5ccccc5N5C(=O)CC=C([C@H]1C[C@H]23)[C@H]54 [ISOSUNGUCINE]
[1]
  GI50: 2.16 µM (inactive)
[2]
  GI50: 5.81 µM (inactive)
[3]
  GI50: 1.1 µM (active)
[4]
  GI50: 5.66 µM (inactive)
[5]
  GI50: 2.33 µM
[6]
  GI50: 2.11 µM (inactive)
[8]
  GI50: 5.41 µM (inactive)
[10]
  GI50: 1.18 µM (inactive)
[11]
  GI50: 3.46 µM (inactive)
[12]
  GI50: 2.43 µM (inactive)
[13]
  GI50: 6.85 µM (inactive)
[14]
  GI50: 8.81 µM (inactive)
[15]
  GI50: 2.7 µM (inactive)
[16]
  GI50: 1.42 µM (inactive)
[17]
  GI50: 2.75 µM (inactive)
[18]
  GI50: 7.91 µM (inactive)
[19]
  GI50: 2.86 µM (inactive)

## O=Nc1c(-c2cccc([N+](=O)[O-])c2)nc2cnccn12
[1]
  GI50: 16 µM (inactive)
[2]
  GI50: 3.63 µM (inactive)
[3]
  GI50: 0.14 µM (active)
[4]
  GI50: 34 µM (inactive)
[5]
  GI50: 14.5 µM
[6]
  GI50: 14.3 µM (inactive)
[7]
  GI50: 17.4 µM (inactive)
[8]
  GI50: 30.9 µM (inactive)
[9]
  GI50: 15.2 µM (inactive)
[10]
  GI50: 18.7 µM (inactive)
[11]
  GI50: 36 µM (inactive)
[12]
  GI50: 13.8 µM (inactive)
[13]
  GI50: 16.7 µM (inactive)
[14]
  GI50: 21.4 µM (inactive)
[15]
  GI50: 24.9 µM (inactive)
[16]
  GI50: 21.5 µM (inactive)
[17]
  GI50: 29.4 µM (inactive)
[18]
  GI50: 35.2 µM (inactive)
[19]
  GI50: 18.5 µM (inactive)

## CCOC(=O)C(=[N+]=[N-])C(=O)C1(C(=O)OCC)CCN(C(=O)c2ccccc2)C1=O (stereo unspecified)
[1]
  GI50: > 100 µM (inactive)
[2]
  GI50: > 100 µM (inactive)
[3]
  GI50: > 100 µM (inactive)
[4]
  GI50: > 100 µM (inactive)
[5]
  GI50: > 100 µM
[6]
  GI50: > 100 µM (inactive)
[7]
  GI50: > 100 µM (inactive)
[8]
  GI50: > 100 µM (inactive)
[9]
  GI50: > 100 µM (inactive)
[10]
  GI50: > 100 µM (inactive)
[11]
  GI50: > 100 µM (inactive)
[12]
  GI50: > 100 µM (inactive)
[13]
  GI50: > 100 µM (inactive)
[14]
  GI50: > 100 µM (inactive)
[15]
  GI50: > 100 µM (inactive)
[17]
  GI50: > 100 µM (inactive)
[18]
  GI50: > 100 µM (inactive)
[19]
  GI50: > 100 µM (inactive)

## CC1=CC(=O)/C(=C/N2C(=O)CNC2=S)C(=O)O1
[1]
  GI50: > 100 µM (inactive)
[2]
  GI50: > 100 µM (inactive)
[4]
  GI50: > 100 µM (inactive)
[5]
  GI50: > 100 µM
[6]
  GI50: > 100 µM (inactive)
[7]
  GI50: > 100 µM (inactive)
[8]
  GI50: > 100 µM (inactive)
[9]
  GI50: > 100 µM (inactive)
[10]
  GI50: > 100 µM (inactive)
[11]
  GI50: > 100 µM (inactive)
[12]
  GI50: > 100 µM (inactive)
[13]
  GI50: > 100 µM (inactive)
[14]
  GI50: > 100 µM (inactive)
[15]
  GI50: > 100 µM (inactive)
[16]
  GI50: > 100 µM (inactive)
[17]
  GI50: > 100 µM (inactive)
[18]
  GI50: > 100 µM (inactive)

## CCS(=O)(=O)c1c2cc(OC)ccc2nc2ccc(OC)cc12
[1]
  GI50: > 100 µM (inactive)
[2]
  GI50: > 100 µM (inactive)
[3]
  GI50: > 100 µM (inactive)
[4]
  GI50: > 100 µM (inactive)
[5]
  GI50: > 100 µM
[6]
  GI50: > 100 µM (inactive)
[7]
  GI50: > 100 µM (inactive)
[8]
  GI50: > 100 µM (inactive)
[9]
  GI50: > 100 µM (inactive)
[10]
  GI50: > 100 µM (inactive)
[11]
  GI50: > 100 µM (inactive)
[12]
  GI50: > 100 µM (inactive)
[13]
  GI50: > 100 µM (inactive)
[14]
  GI50: > 100 µM (inactive)
[15]
  GI50: > 100 µM (inactive)
[16]
  GI50: > 100 µM (inactive)
[18]
  GI50: > 100 µM (inactive)
[19]
  GI50: > 100 µM (inactive)

## CC[C@@]1(O)C(=O)OCc2c1cc1n(c2=O)Cc2cc3cc(O)ccc3nc2-1 [HYDROXYCAMPTOTHECIN]
[1]
  GI50: 0.0241 µM (active)
[2]
  GI50: < 0.0116 µM (active)
[3]
  GI50: < 0.0075 µM (active)
[5]
  GI50: 0.295 µM
[7]
  GI50: 0.476 µM (active)
[9]
  GI50: 0.0337 µM (active)
[10]
  GI50: 0.0336 µM (active)
[11]
  GI50: < 0.0075 µM (active)
[12]
  GI50: 0.867 µM (active)
[13]
  GI50: 0.0176 µM (active)
[14]
  GI50: 0.0232 µM (active)
[15]
  GI50: 0.084 µM (active)
[18]
  GI50: 0.014 µM (active)
[19]
  GI50: < 0.0075 µM (active)

## COC(=O)C1(C(=O)OC)CC2=C(S(=O)(=O)c3ccccc3)C[C@H](C#N)[C@H]2C1
[1]
  GI50: > 100 µM (inactive)
[2]
  GI50: > 100 µM (inactive)
[3]
  GI50: > 100 µM (inactive)
[4]
  GI50: > 100 µM (inactive)
[5]
  GI50: 40.6 µM
[6]
  GI50: > 100 µM (inactive)
[7]
  GI50: 44.6 µM (inactive)
[8]
  GI50: > 100 µM (inactive)
[9]
  GI50: > 100 µM (inactive)
[10]
  GI50: > 100 µM (inactive)
[11]
  GI50: 24 µM (inactive)
[12]
  GI50: > 100 µM (inactive)
[13]
  GI50: > 100 µM (inactive)
[14]
  GI50: > 100 µM (inactive)
[15]
  GI50: > 100 µM (inactive)
[16]
  GI50: > 100 µM (inactive)
[17]
  GI50: > 100 µM (inactive)
[18]
  GI50: > 100 µM (inactive)
[19]
  GI50: > 100 µM (inactive)

## C/C(=C\COP(=O)(O)OP(=O)(O)O)CC/C=C(\C)CNc1c(F)c(F)c(F)c(F)c1F
[1]
  GI50: > 100 µM (inactive)
[2]
  GI50: > 100 µM (inactive)
[3]
  GI50: 0.126 µM (active)
[4]
  GI50: > 54.3 µM (inactive)
[5]
  GI50: > 100 µM
[6]
  GI50: > 58.3 µM (inactive)
[7]
  GI50: > 86.3 µM (inactive)
[8]
  GI50: > 100 µM (inactive)
[9]
  GI50: > 100 µM (inactive)
[10]
  GI50: > 100 µM (inactive)
[11]
  GI50: > 100 µM (inactive)
[12]
  GI50: 5.43 µM (inactive)
[13]
  GI50: > 100 µM (inactive)
[14]
  GI50: > 100 µM (inactive)
[15]
  GI50: 67.3 µM (inactive)
[16]
  GI50: > 100 µM (inactive)
[17]
  GI50: > 100 µM (inactive)
[18]
  GI50: 1.69 µM (inactive)
[19]
  GI50: > 51.9 µM (inactive)

## COc1cc2c(c(OC)c1OC)-c1ccc(SC)c(=O)cc1[C@@H](OC(C)=O)CC2
[1]
  GI50: < 0.01 µM (active)
[2]
  GI50: < 0.01 µM (active)
[3]
  GI50: < 0.01 µM (active)
[5]
  GI50: < 0.01 µM
[6]
  GI50: < 0.01 µM (active)
[7]
  GI50: < 0.01 µM (active)
[8]
  GI50: < 0.01 µM (active)
[9]
  GI50: < 0.01 µM (active)
[10]
  GI50: < 0.01 µM (active)
[11]
  GI50: < 0.01 µM (active)
[12]
  GI50: < 0.01 µM (active)
[13]
  GI50: < 0.01 µM (active)
[14]
  GI50: < 0.01 µM (active)
[15]
  GI50: < 0.01 µM (active)
[16]
  GI50: < 0.01 µM (active)
[17]
  GI50: < 0.01 µM (active)
[18]
  GI50: < 0.0152 µM (active)
[19]
  GI50: < 0.01 µM (active)

## CCOC(=O)c1ccc(-c2cc(C)[nH]n2)[nH]1
[1]
  GI50: > 100 µM (inactive)
[2]
  GI50: > 100 µM (inactive)
[3]
  GI50: > 100 µM (inactive)
[4]
  GI50: 54.1 µM (inactive)
[5]
  GI50: > 100 µM
[6]
  GI50: > 100 µM (inactive)
[8]
  GI50: 62.5 µM (inactive)
[9]
  GI50: > 100 µM (inactive)
[10]
  GI50: > 100 µM (inactive)
[12]
  GI50: > 100 µM (inactive)
[13]
  GI50: > 100 µM (inactive)
[14]
  GI50: > 100 µM (inactive)
[15]
  GI50: > 100 µM (inactive)
[20]
  GI50: > 100 µM (inactive)
[16]
  GI50: > 100 µM (inactive)
[17]
  GI50: > 100 µM (inactive)
[18]
  GI50: > 100 µM (inactive)
[19]
  GI50: > 100 µM (inactive)
